Counter-ions that a name gives are not always drawn.

Experiment [1] concerns 5-HT2C receptors. Nature of the experiment: biochemical. Format: binding, pig. The following applies: for 5-HT2A /5-HT2C affinity ratio: 5-HT2A Ki (rat frontal cortex) over 5-HT2C Ki (pig cerebral plexus). On the procedure: (§1) Measurement of the in vitro affinity for the 5-HT2C and 5-HT2A receptors
(§2) The procedures described for the studies of the binding to the 5-HT2A and 5-HT2C receptors are exactly those described by H. Canton et al. (Eur. J. Pharmacol., 191, 93, 1990) and M. J. Millan et al. (J. Pharmacol. Exp. Ther., 262, 451-463, 1992). For 5-HT2A : rat frontal cortex/[^3 H]-ketanserin (1.0 nM). For 5-HT2C : pig […] plexus/[^3 H]-mesulergine (1.0 nM). The 50% inhibitory doses (ID50) are determined by regression analysis and the pKi values are calculated as follows: [formula] [L]=concentration of the Kd-Kd=dissociation constant Results

The target of experiment [2] is T1, 5-HT2C receptors (Sus scrofa, UniProt K7GSR7).
T1 construct: pig cerebral plexus; from tissue; host or cells: pig cerebral plexus (own knowledge: choroid plexus)
T1 sequence (K7GSR7 1-457): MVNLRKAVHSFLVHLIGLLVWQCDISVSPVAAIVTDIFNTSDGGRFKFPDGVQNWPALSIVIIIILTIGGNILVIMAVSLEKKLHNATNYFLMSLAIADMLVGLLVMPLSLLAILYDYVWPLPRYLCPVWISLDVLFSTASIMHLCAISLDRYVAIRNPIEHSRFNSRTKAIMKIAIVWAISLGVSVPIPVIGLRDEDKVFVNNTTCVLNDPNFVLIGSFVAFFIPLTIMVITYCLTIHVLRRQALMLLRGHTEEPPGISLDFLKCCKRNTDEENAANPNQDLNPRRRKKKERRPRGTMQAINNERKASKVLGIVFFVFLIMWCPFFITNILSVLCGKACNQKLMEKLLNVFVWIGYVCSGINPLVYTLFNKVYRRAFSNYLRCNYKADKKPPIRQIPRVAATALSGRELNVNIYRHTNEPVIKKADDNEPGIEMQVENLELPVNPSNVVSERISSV
Nature of the experiment: biochemical. Format: binding, pig. The note with it: for Ki: 5-HT2C Ki (nM), pig cerebral plexus, [3H]-mesulergine 1.0 nM, average of two to four determinations. Here is the method: as §1, §2

For experiment [3], the target named is T2, 5-HT2A receptors (Rattus norvegicus, UniProt P14842).
T2 construct: rat frontal cortex; from tissue; host or cells: rat frontal cortex
Kind of experiment: In vitro affinity for the 5-HT2A receptors, rat frontal cortex/[3H]-ketanserin (1.0 nM). The following applies: rat frontal cortex, [3H]-ketanserin 1.0 nM; average of two to four determinations. Format: binding. Here is the method:
as §1, §2

T2 sequence (P14842 whole entry): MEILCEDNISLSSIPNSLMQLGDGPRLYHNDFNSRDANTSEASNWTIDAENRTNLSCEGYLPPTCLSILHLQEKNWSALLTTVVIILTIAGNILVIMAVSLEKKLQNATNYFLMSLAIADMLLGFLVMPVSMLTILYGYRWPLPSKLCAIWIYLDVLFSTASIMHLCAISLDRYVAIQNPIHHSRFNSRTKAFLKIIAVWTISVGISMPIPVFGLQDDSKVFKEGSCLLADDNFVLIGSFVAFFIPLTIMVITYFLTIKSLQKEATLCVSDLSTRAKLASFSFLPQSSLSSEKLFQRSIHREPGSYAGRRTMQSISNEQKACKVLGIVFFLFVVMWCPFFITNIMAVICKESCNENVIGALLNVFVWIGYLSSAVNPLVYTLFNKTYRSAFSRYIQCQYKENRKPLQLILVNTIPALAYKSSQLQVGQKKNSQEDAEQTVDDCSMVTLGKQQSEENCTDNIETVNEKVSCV

A word on the Ki: it is a dissociation constant, usually derived from enzyme kinetics or from competition with a known ligand. For `COc1ccc2c(c1)OC[C@H]1CN(Cc3ccccc3)C[C@H]21.Cl` (relative stereo) [Example 22, trans-2-Benzyl-7-methoxy-1,3,3a,4,9b-pentahydro-(1)-benzopyrano[3,4-c]pyrrole hydrochloride], the “5-HT2A /5-HT2C affinity ratio” value in experiment [1] was 3.6. Also, the Ki was 478 nM in experiment [2] and 170 nM in experiment [3].

Take `COc1ccc2c(c1)[C@H]1CN(Cc3ccccc3)C[C@@H]1CO2.Cl` (relative stereo) [Example 9, trans-2-Benzyl-8-methoxy-1,3,3a,4,9b-pentahydro-(1)-benzopyrano[3,4-c]pyrrole hydrochloride]: the “5-HT2A /5-HT2C affinity ratio” value in experiment [1] was 2.3. The Ki in experiment [2] is 468 nM; in experiment [3], 1100 nM.

As for `c1ccc2c(c1)OC[C@@H]1CN(CCOc3cccc4c3SCCC4)C[C@H]21` (relative stereo) [Example 19, cis-2-[2-(Thiochroman-8-yloxy)ethyl]-1,3,3a,9b-pentahydro-(1)-benzopyrano[3,4-c]pyrrole hydrochloride], in experiment [1], the “5-HT2A /5-HT2C affinity ratio” value amounted to 7.0. The Ki in experiment [2] was 22 nM; in experiment [3], 155 nM. Moreover, the “times more powerful antagonists than the reference compound SB 200,646” value in experiment [2] (relative to SB 200,646) is listed as 9 times.

Consider `Cl.c1ccc2c3c(ccc2c1)[C@@H]1CNC[C@@H]1CO3` (relative stereo) [Example 36, cis-12,13,14,15,16,17-Hexahydro-11-oxa-16-aza-cyclopenta[a]phenanthrene hydrochloride], for which, in experiment [1], the “5-HT2A /5-HT2C affinity ratio” value worked out at 10. For the same molecule, the inhibition constant (Ki) in experiment [2] stood at 25.7 nM; in experiment [3] it was 257 nM.

On to `Cl.c1ccc2c3c(ccc2c1)OC[C@@H]1CNC[C@@H]31` (relative stereo) [Example 33, trans-1,2,3,3a,4,11c-Hexahydro-5-oxa-2-aza-cyclopenta[c]phenanthrene hydrochloride], for which the “5-HT2A /5-HT2C affinity ratio” value in experiment [1] is recorded as 2.1. Moreover, the inhibition constant Ki in experiment [2] came to 51 nM; in experiment [3], 107 nM.

Consider `CCCN1C[C@@H]2COc3cccc(OC)c3[C@H]2C1` (relative stereo) [Example 6, trans-2-Propyl-9-methoxy-1,3,3a,4,9b-pentahydro-(1)-benzopyrano[3,4-c]pyrrole], for which the “5-HT2A /5-HT2C affinity ratio” value in experiment [1] was 16.7. Also, in experiment [1] (5-HT2C vs 5-HT2A, relative to SB 200,646), the “selectivity relative to the reference compound SB 200,646” value is “twice that of the reference compound SB 200,646”. Also, the Ki in experiment [2] amounted to 104 nM; in experiment [3], 1740 nM.

On to `Cl.Oc1cccc2c1[C@H]1CN(Cc3ccccc3)C[C@@H]1CO2` (relative stereo) [Example 2, trans-2-Benzyl-9-hydroxy-1,3,3a,4,9b-pentahydro-(1)-benzopyrano[3,4-c]pyrrole hydrochloride], for which the “5-HT2A /5-HT2C affinity ratio” value in experiment [1] came to 2.5. In addition, the values for the Ki in experiment [2] and in experiment [3] were 195 nM and 490 nM, respectively.

On to `Cl.Clc1ccc2c(c1)OC[C@H]1CN(Cc3ccccc3)C[C@H]21` (relative stereo) [Example 18, trans-2-Benzyl-7-chloro-1,3,3a,4,9b-pentahydro-(1)-benzopyrano[3,4-c]pyrrole hydrochloride], for which the “5-HT2A /5-HT2C affinity ratio” value in experiment [1] worked out at 2.1. Also, the Ki in experiment [2] stood at 871 nM; in experiment [3] it was 1870 nM.

Turning to `Cl.c1ccc2c3c(ccc2c1)OC[C@@H]1CNC[C@H]31` (relative stereo) [Example 38, cis-1,2,3,3a,4,11c-Hexahydro-5-oxa-2-aza-cyclopenta[c]phenanthrene hydrochloride], the “5-HT2A /5-HT2C affinity ratio” value in experiment [1] worked out at 4.3. The inhibition constant Ki in experiment [2] is 22.9 nM; in experiment [3], 97.7 nM.

Turning to `Cl.c1ccc(CN2C[C@H]3COc4c(ccc5ccccc45)[C@@H]3C2)cc1` (relative stereo) [Example 34, trans-16-Benzyl-12,13,14,15,16,17-hexahydro-11-oxa-16-aza-cyclopenta[a]phenanthrene hydrochloride], the “5-HT2A /5-HT2C affinity ratio” value in experiment [1] is recorded as 1.9. Moreover, the Ki in experiment [2] was 776 nM; in experiment [3] it was 1480 nM.

Values taken from patent US5723484A, “Benzopyran compounds as 5-HT2C receptor antagonists” (Adir et Compagnie, priority 1994, dated 1998).
